Reference: publication PMC12209990, “Effect of Cytochrome P450 3A Inhibition and Induction by Itraconazole and Rifampin on Tazemetostat Pharmacokinetics in Patients With Advanced Malignancies” (Clinical Pharmacology in Drug Development, 2025)
Where two headings read alike, the source gives them in different places. Marks after values point to notes of the source that are not given here.

Experiment: Phase I DDI study Part 1: tazemetostat plasma PK alone and with itraconazole (noncompartmental analysis)
Assay type: in vivo, human
Details: Part 1; for RacAUC (AUC0‐12h accumulation ratio), geoLSM (90% CI) / RacCmax (Cmax accumulation ratio), geoLSM (90% CI): tazemetostat 400 mg alone, Day 15 versus Day 1; for AUC / AUC(0-t) / Cmax / half-life / Tmax: human, oral; for Tmax: read-out: tmax, median (range)
Source text: This was a Phase I, multicenter, open‐label, 2‐part study encompassing a fixed‐sequence design that aimed to characterize the PK of tazemetostat when administered as single and twice‐daily oral doses alone or in combination with either itraconazole (Part 1) or rifampin (Part 2). Secondary objectives were to evaluate the safety profile of tazemetostat when coadministered with either itraconazole (Part 1) or rifampin (Part 2).
Part 1 of the study evaluated the DDI between tazemetostat and itraconazole. On the mornings of Days 1 and 15, patients received a single dose of tazemetostat 400 mg orally. On Days 3‐14, patients received tazemetostat 400 mg twice daily (morning and evening). On Days 18‐20, patients received itraconazole 200 mg orally once daily in the morning. On Days 21‐35, tazemetostat 400 mg twice daily was coadministered in the morning with a single dose of itraconazole 200 mg. On Day 36, patients received a single dose of tazemetostat 400 mg coadministered in the morning with a single dose of itraconazole 200 mg. On Days 37 and 38, patients received a single dose of itraconazole 200 mg (Figure 1A). Throughout Part 1, administration of itraconazole occurred 1 hour after a meal.
In Part 1, plasma concentrations of tazemetostat following tazemetostat dosing on Days 1, 15, 21, and 36 were quantified for PK analyses before dosing (0 hour), and at 0.5, 1, 1.5, 2, 4, 6, 8, 12, 24 (Days 21‐22), 36, 48 (Days 1‐3), and up to 72 hours after dosing (Days 15‐18 and Days 36‐39).
Plasma concentrations of tazemetostat, over the ranges of 1.00‐2000 ng/mL, were quantified by a fully validated liquid chromatography with tandem mass spectrometric detection analytical method. Samples that had no detectable peak or had the calculated concentration <1.00 ng/mL were reported as below the lower limit of quantification. Tazemetostat analysis consisted of protein precipitation extraction and separation using mobile phases of 100 mM ammonium formate/water (1:9 v/v) (mobile phase A) and 100 mM ammonium formate/acetonitrile (1:9 v/v) (mobile phase B). Detection was achieved using an API‐5500 mass spectrometer (AB Sciex) using electrospray ionization (positive‐ion mode) in the multiple reaction monitoring mode. The multiple reaction monitoring mode m/z transitions monitored were […] for tazemetostat and the dwell time was set at 300 milliseconds.
Plasma concentration‐time data for tazemetostat were analyzed by noncompartmental analysis using the validated software program Phoenix WinNonlin Professional Version 8.3 (Certara Inc., Mountain View, CA).

[1] = single dose with itraconazole vs alone, Day 21 versus Day 1
[2] = single dose with itraconazole vs alone, Day 21 versus Day 1, listed as tazemetostat
[3] = steady state with itraconazole vs alone, Day 36 versus Day 15
[4] = steady state with itraconazole vs alone, Day 36 versus Day 15, listed as tazemetostat

**Q.** Which “AUC0‐12h ratio, geoLSM (90% CI)” value [1] does the source give for `CCN(c1cc(-c2ccc(CN3CCOCC3)cc2)cc(C(=O)NCc2c(C)cc(C)[nH]c2=O)c1C)C1CCOCC1` [Tazemetostat] here?
**A.** 3.12 (2.44‐3.99) ^b

**Q.** What about the “Cmax ratio, geoLSM (90% CI)” value [1] of the same compound?
**A.** 2.00 (1.60‐2.48) ^b

**Q.** What about the “AUC0‐12h ratio, geoLSM (90% CI)” value [2] of the same compound?
**A.** 3.12

**Q.** What about the “Cmax ratio, geoLSM (90% CI)” value [2] of the same compound?
**A.** 2.00

**Q.** And the “AUC0‐12h ratio, geoLSM (90% CI)” value [3]?
**A.** 2.47 (2.02‐3.02) ^c

**Q.** What about the “Cmax ratio, geoLSM (90% CI)” value [3] of the same compound?
**A.** 1.86 (1.49‐2.31) ^c

**Q.** What about the “AUC0‐12h ratio, geoLSM (90% CI)” value [4] of the same compound?
**A.** 2.47

**Q.** And the “Cmax ratio, geoLSM (90% CI)” value [4]?
**A.** 1.86

**Q.** What about the “RacAUC (AUC0‐12h accumulation ratio), geoLSM (90% CI)” value of the same compound?
**A.** 0.842 (0.726‐0.976) ^e

**Q.** What about the “RacCmax (Cmax accumulation ratio), geoLSM (90% CI)” value of the same compound?
**A.** 0.771 (0.662‐0.897) ^e

**Q.** And the “RacAUC (AUC0‐12h accumulation ratio), geoLSM (90% CI)” value (listed as tazemetostat)?
**A.** 0.842

**Q.** What about the “RacCmax (Cmax accumulation ratio), geoLSM (90% CI)” value (listed as tazemetostat) of the same compound?
**A.** 0.771

**Q.** What about the “AUC0‐12 h, GeoMean (CV%)” value (tazemetostat 400 mg multiple dosing with itraconazole 200 mg once daily, Day 36, plasma) of the same compound?
**A.** 4530 (64.5) ng•h/mL

**Q.** And the “t1/2, GeoMean (CV%)” value (tazemetostat 400 mg single dose with itraconazole 200 mg once daily, Day 21, plasma, estimated over a 12‐hour dosing interval)?
**A.** 2.86 (28.9) ^a hour

**Q.** What about the AUC (plasma, 400 mg, tazemetostat 400 mg twice daily alone, multiple dosing, Day 15, plasma, read-out: AUC0‐12 h, GeoMean (CV%)) of the same compound?
**A.** 1830 ng·h/mL

**Q.** What about the AUC (plasma, 400 mg, tazemetostat 400 mg twice daily alone, multiple dosing, Day 15, plasma, read-out: AUC0‐12 h, mean (SD)) of the same compound?
**A.** 1960 ng·h/mL

**Q.** And the AUC(0-t) (plasma, 400 mg, tazemetostat 400 mg twice daily alone, multiple dosing, Day 15, plasma, read-out: AUClast, GeoMean (CV%))?
**A.** 2200 ng·h/mL

**Q.** And the AUC(0-t) (plasma, 400 mg, tazemetostat 400 mg twice daily alone, multiple dosing, Day 15, plasma, read-out: AUClast, mean (SD))?
**A.** 2340 ng·h/mL

**Q.** And the Cmax (plasma, 400 mg, tazemetostat 400 mg twice daily alone, multiple dosing, Day 15, plasma, read-out: Cmax, GeoMean (CV%))?
**A.** 543 ng/mL

**Q.** And the Cmax (plasma, 400 mg, tazemetostat 400 mg twice daily alone, multiple dosing, Day 15, plasma, read-out: Cmax, mean (SD))?
**A.** 643 ng/mL

**Q.** And the half-life (plasma, 400 mg, tazemetostat 400 mg twice daily alone, multiple dosing, Day 15, plasma, read-out: t1/2, GeoMean (CV%) (converted))?
**A.** 481 min

**Q.** What about the half-life (plasma, 400 mg, tazemetostat 400 mg twice daily alone, multiple dosing, Day 15, plasma, read-out: t1/2, mean (SD) (converted)) of the same compound?
**A.** 517 min

**Q.** What about the Tmax (plasma, 400 mg, tazemetostat 400 mg twice daily alone, multiple dosing, Day 15, plasma) of the same compound?
**A.** 1.27 h

**Q.** And the AUC (plasma, tazemetostat 400 mg multiple dosing with itraconazole 200 mg once daily, Day 36, plasma, read-out: AUC0‐12 h, mean (SD))?
**A.** 5160 ng·h/mL

**Q.** What about the AUC(0-t) (plasma, tazemetostat 400 mg multiple dosing with itraconazole 200 mg once daily, Day 36, plasma, read-out: AUClast, GeoMean (CV%)) of the same compound?
**A.** 5750 ng·h/mL

**Q.** What about the AUC(0-t) (plasma, tazemetostat 400 mg multiple dosing with itraconazole 200 mg once daily, Day 36, plasma, read-out: AUClast, mean (SD)) of the same compound?
**A.** 6490 ng·h/mL

**Q.** And the Cmax (plasma, tazemetostat 400 mg multiple dosing with itraconazole 200 mg once daily, Day 36, plasma, read-out: Cmax, GeoMean (CV%))?
**A.** 1010 ng/mL

**Q.** What about the Cmax (plasma, tazemetostat 400 mg multiple dosing with itraconazole 200 mg once daily, Day 36, plasma, read-out: Cmax, mean (SD)) of the same compound?
**A.** 1190 ng/mL

**Q.** And the half-life (plasma, tazemetostat 400 mg multiple dosing with itraconazole 200 mg once daily, Day 36, plasma, read-out: t1/2, GeoMean (CV%) (converted))?
**A.** 714 min

**Q.** What about the half-life (plasma, tazemetostat 400 mg multiple dosing with itraconazole 200 mg once daily, Day 36, plasma, read-out: t1/2, mean (SD) (converted)) of the same compound?
**A.** 774 min

**Q.** And the Tmax (plasma, tazemetostat 400 mg multiple dosing with itraconazole 200 mg once daily, Day 36, plasma)?
**A.** 1.49 h

**Q.** What about the half-life (plasma, tazemetostat 400 mg single dose with itraconazole 200 mg once daily, Day 21, plasma, estimated over a 12‐hour dosing interval, read-out: t1/2, mean (SD) (converted)) of the same compound?
**A.** 177 min

**Q.** What about the AUC (plasma, tazemetostat 400 mg single dose with itraconazole 200 mg once daily, Day 21, plasma, read-out: AUC0‐12 h, GeoMean (CV%)) of the same compound?
**A.** 6790 ng·h/mL

**Q.** And the AUC (plasma, tazemetostat 400 mg single dose with itraconazole 200 mg once daily, Day 21, plasma, read-out: AUC0‐12 h, mean (SD))?
**A.** 8000 ng·h/mL

**Q.** What about the AUC(0-t) (plasma, tazemetostat 400 mg single dose with itraconazole 200 mg once daily, Day 21, plasma, read-out: AUClast, GeoMean (CV%)) of the same compound?
**A.** 6720 ng·h/mL

**Q.** What about the AUC(0-t) (plasma, tazemetostat 400 mg single dose with itraconazole 200 mg once daily, Day 21, plasma, read-out: AUClast, mean (SD)) of the same compound?
**A.** 7930 ng·h/mL
